Results taken from the supplement of paper PMC10307832.

Tests used:
Experiment in all cases: relative viability (nuclei count vs DMSO), 5 days (fraction); higher = more cells survive
[1] = compound: CCC1=CN=CN=C1N2CCN(CC2)CC3=NC4=C(N3)C=C(C=C4)C(F)(F)F + CS(=O)(=O)N1CCN(Cc2cc3nc(-c4cccc5[nH]ncc45)nc(N4CCOCC4)c3s2)CC1 [Pictilisib] (partner 1 µM)
Procedure, shortened: (§1)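 Relative viability equals treated-well nuclei counts divided by vehicle-well nuclei counts. Counts came from 4× images of lung cancer cell lines grown in 1536-well plates for 5 days after pin-tool dosing on the day after seeding. Dosing used one drug alone or a fixed anchor-drug dose plus five library-drug doses (not always all listed) in √10 steps, and values are medians of duplicate plates.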

[2] = compound: CCC1=CN=CN=C1N2CCN(CC2)CC3=NC4=C(N3)C=C(C=C4)C(F)(F)F + CC(=O)c1c(C)c2cnc(Nc3ccc(N4CCNCC4)cn3)nc2n(C2CCCC2)c1=O [Palbociclib] (partner 0.5 µM)
Procedure, shortened: as §1

[3] = compound: CCn1c(-c2nonc2N)nc2cnc(Oc3cccc(NC(=O)c4ccc(OCCN5CCOCC5)cc4)c3)cc21 + O=C(c1cc(Cc2n[nH]c(=O)c3ccccc23)ccc1F)N1CCN(C(=O)C2CC2)CC1 [Olaparib] (partner 8 µM)
Procedure, shortened: as §1

[4] = compound: CCn1c(-c2nonc2N)nc2cnc(Oc3cccc(NC(=O)c4ccc(OCCN5CCOCC5)cc4)c3)cc21 + CS(=O)(=O)CCNCc1ccc(-c2ccc3ncnc(Nc4ccc(OCc5cccc(F)c5)c(Cl)c4)c3c2)o1 [Lapatinib] (partner 2 µM)
Procedure, shortened: as §1

Cell Line	relative viability ([1]; first compound 0.04 µM)	relative viability ([1]; first compound 0.1265 µM)	relative viability ([1]; first compound 0.4 µM)	relative viability ([1]; first compound 1.265 µM)	relative viability ([1]; first compound 4 µM)	relative viability ([2]; first compound 0.04 µM)	relative viability ([2]; first compound 0.1265 µM)	relative viability ([2]; first compound 0.4 µM)	relative viability ([2]; first compound 1.265 µM)	relative viability ([2]; first compound 4 µM)	relative viability ([3]; first compound 0.04 µM)	relative viability ([3]; first compound 0.1265 µM)	relative viability ([3]; first compound 0.4 µM)	relative viability ([3]; first compound 1.265 µM)	relative viability ([3]; first compound 4 µM)	relative viability ([4]; first compound 0.04 µM)	relative viability ([4]; first compound 0.1265 µM)	relative viability ([4]; first compound 0.4 µM)	relative viability ([4]; first compound 1.265 µM)	relative viability ([4]; first compound 4 µM)
EMC-BAC-2	0.571	0.491	0.479	0.349	0.608	0.483	0.532	0.533	0.463	0.554	0.474	0.42	0.38	0.27	0.292	0.931	0.955	0.543	0.645	0.588
LK-2	0.575	0.462	0.436	0.42	0.56	0.685	0.469	0.752	0.381	0.594	1.13	0.745	0.367	0.326	0.555	1.2	0.95	0.605	0.706	0.949
NCI-H3122	0.69	0.578	0.609	0.665	0.659	0.176	0.226	0.207	0.172	0.172	0.697	0.618	0.643	0.607	0.592	1.1	1.04	0.891	0.804	0.691
NCI-H2126	0.518	0.496	0.493	0.442	0.496	0.365	0.333	0.376	0.354	0.369	1.09	0.966	0.907	0.889	0.854	0.764	0.782	0.541	0.742	0.825
NCI-H520	0.326	0.28	0.238	0.255	0.279	0.255	0.233	0.194	0.174	0.2	0.432	0.347	0.264	0.237	0.237	1	0.897	0.632	0.385	0.312
LOU-NH91	0.501	0.533	0.54	0.47	0.551	0.523	0.565	0.541	0.542	0.558	0.919	0.756	0.665	0.494	0.534	0.817	0.77	0.537	0.518	0.517
NCI-H1651	0.625	0.607	0.487	0.65	0.675	0.558	0.562	0.513	0.463	0.532	0.18	0.182	0.195	0.17	0.169	0.998	0.819	0.639	0.49	0.421
NCI-H460	0.41	0.291	0.36	0.224	0.395	0.145	0.199	0.174	0.152	0.166	0.545	0.383	0.458	0.085	0.138	1.93	0.994	0.656	0.202	0.299
